Results as given in PubChem BioAssay (NCI).
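1) Cells in 96-well plates. 2) Compound, 48 h, 5 concentrations. 3) Linear interpolation between surrounding doses. 4) Unreached endpoint = highest concentration. GI50 = concentration required for 50% inhibition of growth. TGI: total growth inhibition.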 *1 amine or outer side, *2 acyl side, *3 side chain or, on linkers, in order; H or OH if unused. Where a SMILES comes first, the peptide text is derived from it. Bridges are numbered along the chain shown (N, C = ends). [ ]: non-standard residue; d: D form. The star is where a group is joined. X19 = O=C([C@H](N[*:1])c1ccc(O[C@H]2O[C@@H](CO)[C@@H](O)[C@@H](O)[C@H]2O[C@@H]2O[C@H](CO)[C@H](O)[C@H](O)[C@@H]2O)cc1)[*:2]; X18 = NC(=O)[C@@H](O[*:3])[C@H](N[*:1])C(=O)[*:2]; X20 = O=C([C@H](N[*:1])c1ccc(O)c(Cl)c1)[*:2]; d(aThr) = C[C@@H](O)[C@@H](N)C(=O)O; dHpg = N[C@@H](C(=O)O)c1ccc(O)cc1; X17 = CC(C)C/C=C/C=C/C(=O)*; dOrn = NCCC[C@@H](N)C(=O)O

Legend:
Test in all cases: DTP human tumour cell line panel, 48 h
786-0 renal = system: 786-0 renal
CAKI-1 renal = system: CAKI-1 renal
COLO 205 colon = system: COLO 205 colon
HOP-62 NSCLC = system: HOP-62 NSCLC
MDA-MB-231 breast = system: MDA-MB-231 breast
NCI-H522 lung = system: NCI-H522 lung
OVCAR-4 ovarian = system: OVCAR-4 ovarian
PC-3 prostate = system: PC-3 prostate
SK-MEL-5 melanoma = system: SK-MEL-5 melanoma
UACC-257 melanoma = system: UACC-257 melanoma

SMILES	TGI (786-0 renal)	TGI (CAKI-1 renal)	TGI (COLO 205 colon)	TGI (HOP-62 NSCLC)	TGI (MDA-MB-231 breast)	TGI (NCI-H522 lung)	TGI (OVCAR-4 ovarian)	TGI (PC-3 prostate)	TGI (SK-MEL-5 melanoma)	TGI (UACC-257 melanoma)	GI50 (786-0 renal)	GI50 (CAKI-1 renal)	GI50 (COLO 205 colon)	GI50 (HOP-62 NSCLC)	GI50 (MDA-MB-231 breast)	GI50 (NCI-H522 lung)	GI50 (OVCAR-4 ovarian)	GI50 (PC-3 prostate)	GI50 (SK-MEL-5 melanoma)	GI50 (UACC-257 melanoma)
CC1=C(C(=O)NCC(C)O)CC(C(=O)NCC(C)O)=C(C)N1 (stereo not drawn)	> 100 µM	> 100 µM	> 100 µM	> 100 µM	> 100 µM	> 100 µM	> 100 µM	> 100 µM	> 100 µM	> 100 µM										
CC(C)(C)N1CC(OC(N)=O)C1	> 100 µM	> 100 µM	> 100 µM	> 100 µM	> 100 µM	> 100 µM	> 100 µM	> 100 µM	> 100 µM	> 100 µM	> 100 µM	> 100 µM	> 100 µM	> 100 µM	> 100 µM	> 100 µM	> 100 µM	> 100 µM	> 100 µM	> 100 µM
C[C@@H](Oc1cc(NS(=O)(=O)N2CCC2)nc(SCc2cccc(F)c2F)n1)[C@@H](O)CO	> 100 µM	> 100 µM	> 100 µM	> 100 µM	> 100 µM	> 100 µM	> 100 µM	> 100 µM	> 100 µM	> 100 µM	> 100 µM	> 100 µM	> 100 µM	> 100 µM	> 100 µM	> 100 µM	> 100 µM	> 100 µM	> 100 µM	> 100 µM
CC(C)C/C=C/C=C/C(=O)N[C@@H](CC(N)=O)C(=O)N[C@@H]1C(=O)N[C@H](c2ccc(O)cc2)C(=O)N[C@H](CCCN)C(=O)N[C@H]([C@@H](C)O)C(=O)N[C@H](c2ccc(O)cc2)C(=O)N[C@H](c2ccc(O)cc2)C(=O)N[C@H]([C@H](C)O)C(=O)N[C@H](Cc2ccccc2)C(=O)N[C@H](CCCN)C(=O)N[C@H](c2ccc(O[C@H]3O[C@@H](CO)[C@@H](O)[C@@H](O)[C@H]3O[C@@H]3O[C@H](CO)[C@H](O)[C@H](O)[C@@H]3O)cc2)C(=O)N[C@H]([C@H](C)O)C(=O)N[C@H](c2ccc(O)cc2)C(=O)NCC(=O)N[C@H](CC(C)C)C(=O)N[C@H](C)C(=O)N[C@H](c2ccc(O)c(Cl)c2)C(=O)O[C@@H]1C(N)=O (X17-N[X18][dHpg][dOrn][d(aThr)][dHpg][dHpg][dT][dF][dOrn][X19][dT][dHpg]G[dL][dA][X20]; ester 2-C)	56.7 µM	> 100 µM	> 100 µM	78.2 µM	39.6 µM	> 100 µM	> 100 µM	> 100 µM	44.6 µM	47.4 µM	25 µM	> 100 µM	37.8 µM	29.9 µM	16.1 µM	33.9 µM	39.2 µM	44 µM	22.1 µM	21.9 µM
N=C1C(c2nc3ccccc3s2)=C(O)CN1c1ccc(Cl)cc1Cl	48.2 µM	20.3 µM	> 100 µM	38 µM	42.9 µM	35.2 µM	70.2 µM	29 µM	> 100 µM	45.3 µM	16.9 µM	3.27 µM	36.6 µM	13.9 µM	17.1 µM	11.2 µM	18.3 µM	11.5 µM	19.2 µM	7 µM
NCC1OC(n2cnc3c(=O)[nH]c(N)nc32)C(O)C1O (stereo not drawn)	> 100 µM	> 100 µM	> 100 µM	> 100 µM	> 100 µM	> 100 µM	> 100 µM	> 100 µM	> 100 µM	> 100 µM										
ClC1(c2ccccc2)c2ccc(Br)cc2-c2cc(Br)ccc21	30.2 µM	29.4 µM	33.7 µM	33.4 µM	30.7 µM	30.6 µM	27.3 µM	31.3 µM	29.1 µM	34.9 µM										
N#Cc1ccc(-c2nc3ccc(Cl)cc3[nH]2)cc1	> 100 µM	> 100 µM	> 100 µM	> 100 µM	> 100 µM	> 100 µM		> 100 µM	> 100 µM											
O=c1ccccc(-c2ccc(-c3ccco3)cc2)c1O	14.7 µM		49.8 µM	12.9 µM	44.4 µM	45.8 µM	60.2 µM	31.8 µM	8.44 µM	18.8 µM	0.834 µM		3.1 µM	0.694 µM	0.704 µM	4.07 µM	0.363 µM	1.46 µM	0.935 µM	1.6 µM
O=C(CN1CCOCC1)CC(O)(C(F)(F)F)C(F)(F)F	> 100 µM	> 100 µM	> 100 µM		> 100 µM	> 100 µM	> 100 µM	99.8 µM	> 100 µM	> 100 µM										
O=S(=O)(NCCCNc1cc(-c2cn(-c3ccccc3)nc2-c2cccc(O)c2)ccn1)c1cccc2ccccc12	3.57 µM	> 100 µM	3.29 µM	12.9 µM	6.52 µM	5.66 µM	> 100 µM	44.9 µM	3.41 µM		1.59 µM	3.37 µM	1.69 µM	2.45 µM	1.86 µM	2.32 µM	3.06 µM	2.87 µM	1.57 µM	
